SMILES strings stand for the structures.

The test system of test [1] is human dendritic cells. The test is described as follows: adhesion of dendritic cells to the substrate ICAM-1. Type of test: cell-based. The following applies: 1 μM, 10 μM or 15 μM, 96 hours; stimulation with PMA or MEM-48; FIG. 4. As for the experimental part:
Dendritic cells were produced in vitro by means of differentiation factors (IL-4 and GM-CSF) from blood monocytes that were isolated from peripheral mononuclear cells (PBMC) by Ficoll density gradient centrifugation from the human blood of anonymous donors.
The blood was mixed at a ratio of 1:1 with PBS (KCl 0.2 g/l, KH2PO4 0.2 g/l, NaCl 8 g/l, Na2HPO4 1.15 g/l, PAA, Cölbe)/2 mM EDTA and layered onto half the volume of Ficoll. Centrifugation was carried out at 300×g, 30 minutes with no brake. After the centrifugation, a centered white band appeared which contained the PBMC. This was picked up with PBS/2 mM EDTA, filled up to 50 ml and subjected to several washing steps at 640×g, 500×g, 400×g, 300×g and 200×g. […]
The quantitative analysis of the cell migration was carried out in modified Boyden chambers consisting of a 24-hole plate into which the Transwell® filters with a 5 μm pore size had been placed. […] [98.6° F.] and 5% CO2 in the incubator and subsequently, the number of cells that had migrated into the lower chamber in the direction of the chemokine was determined. […]
Under corresponding conditions, the adhesion was determined after stimulation with phorbolester (PMA, 50 ng/ml, Sigma, Taufkirchen) or anti-beta-2 integrin antibodies MEM-48 (5 μg/ml, Vaclav Horeijsi, Czech Academy of Sciences Prague). […]

Test [2] addresses T1, sec7-domain of cytohesin-2 (Homo sapiens, UniProt Q99418).
T1 construct: 1 μM of the purified sec7-domain of cytohesin-1, cytohesin-2 and Gea2; made in house; host or cells: E. coli BL21DE3
T1 sequence (Q99418 72-201 limits assumed): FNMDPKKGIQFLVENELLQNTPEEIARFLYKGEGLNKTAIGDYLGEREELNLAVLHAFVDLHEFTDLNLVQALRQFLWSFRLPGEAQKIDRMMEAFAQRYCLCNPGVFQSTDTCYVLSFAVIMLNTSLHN
The test is described as follows: GDP/GTP exchange on NΔ17-ARF1 catalysed by sec7-domain (tryptophan fluorescence). Type of test: biochemical. The settings on record: 1 μM NΔ17-ARF1, 1 μM sec7-domain, compounds 1 μM to 30 μM. On the procedure: (§1) The IC50 value for the inhibition of the exchange activity of the sec7-domains of various guanine nucleotide exchange factors of the compounds (9), (10), (11), (12), (14) and (19) was determined.
(§2) For this purpose, the sec7-domains of cytohesin-1, cytohesin-2 and Gea2 as well as the NΔ 17-ARF 1, a mutant of the ARF protein, recombinantly expressed in E. coli BL21DE3, were purified by means of a standard method and used as catalysts for the exchange from GDP to GTP in GTPases of the family of the ADP ribosylation factors. The exchange from GDP to GTP induces a conformation change of the ribosylation factor, as a result of which the fluorescence of a tryptophan radical of the protein is increased.
(§3) In 50 mM of HEPES, pH 7.4, 120 mM of KCl, 1 mM of MgCl2, 45 μM of GTP S, the compounds (9), (10), (11), (12), (14) and (19), each in concentrations of 1 μM to 30 μM, were added to 1 μM NΔ 17-ARF1 and, in each case, 1 μM of the purified sec7-domain of cytohesin-1, cytohesin-2 and Gea2, and the fluorescence was measured in a Varioskan, Thermo LifeSciences Inc., at the following wavelengths: excitation: 275 nm, emission 340 nm.
(§4) The IC50 value can be determined by plotting the initial rise of the fluorescence signal against the added concentrations of the compounds. The IC50 value corresponds to the concentration of the compounds at which the activity of the protein is reduced to half. […] Brefeldin A, a specific inhibitor of the […] Gea2 served as the control.

Test [3] has as its system sec7-domain of cytohesin-1. The test is described as above. The class given is biochemical. The settings on record: conclusion in words from Table 1. On the procedure:
as §1, §2, §3, §4

Test [4] addresses T2, sec7-domain of Gea2 (Saccharomyces cerevisiae, UniProt P39993).
T2 construct: 1 μM of the purified sec7-domain of cytohesin-1, cytohesin-2 and Gea2; made in house; host or cells: E. coli BL21DE3
The test is described as above. The class given is biochemical. On the procedure: as §1, §2, §3, §4

For test [5], the target named is T3, sec7-domain of cytohesin-1 (Homo sapiens, UniProt Q15438).
T3 construct: central sec7-domain, corresponding to the amino acids 62-244 in cytohesin-1; made in house; host or cells: E. coli BL21DE3
T3 sequence (Q15438 62-244): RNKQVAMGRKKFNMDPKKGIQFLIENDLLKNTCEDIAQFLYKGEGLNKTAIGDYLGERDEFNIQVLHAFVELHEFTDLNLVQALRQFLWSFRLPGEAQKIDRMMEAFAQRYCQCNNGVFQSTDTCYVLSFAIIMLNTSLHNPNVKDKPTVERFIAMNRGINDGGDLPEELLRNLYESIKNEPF
The description is as above. The settings on record: 1 μM NΔ17-ARF1, 1 μM sec7-domain, compounds 1 μM to 30 μM. Type of test: biochemical. On the procedure:
as §1, §2, §3, §4

T2 sequence (P39993 570-714): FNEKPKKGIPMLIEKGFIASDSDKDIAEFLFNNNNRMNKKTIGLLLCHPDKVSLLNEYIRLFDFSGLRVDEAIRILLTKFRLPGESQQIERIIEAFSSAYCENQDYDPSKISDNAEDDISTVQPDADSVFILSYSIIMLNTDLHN

What is called IC50 is the concentration at which inhibition is half-maximal. A high value points to lower potency. Consider `COc1nc(-c2ccc3c(c2)OCO3)n(-c2ccc(NC(=O)CSc3ccccc3)cc2)n1` [Compound 9], for which the “inhibition of the adhesion of dendritic cells on the substrate ICAM-1” value in test [1] was “concentration-dependent inhibition”. Besides, the half-inhibitory concentration (IC50) in test [2] was 8.3 ± 0.2 µM; in test [4] it was 64 ± 4 µM; in test [5], 7.6 ± 0.3 µM. In addition, the “specificity of inhibition of sec7-domains (cytohesins vis-à-vis Gea2)” value in test [3] was “specific inhibition of the sec7-domains of the cytohesins”.

The record behind these values is patent publication US8163788B2, “Low-molecular inhibitors of cytohesin-family guanine nucleotide exchange factors” (Rheinische Friedrich-Wilhelms Universitat Bonn, priority 2004, dated 2012).
